The target of assay [1] is T1, phosphorylated EGFR (pEGFR) (Homo sapiens, UniProt P00533).
T1 construct: performed to measure phosphorylated EGFR levels using A431 cells (10% FBS); endogenous in cells; host or cells: A431
In words: Detection of phosphorylated EGFR (pEGFR) in EGF-stimulated A431 cells. It counts as cell-based. The following applies: A431 cells (10% FBS), 4 hours incubation, EGF 30 ng/mL 10 minutes, AlphaLISA. In a few lines: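 AlphaLISA read-out of EGFR phosphorylation after a 10-min EGF pulse (30 ng/mL final). A431 cells (10% FBS) had been exposed to compound for 4 h at 37 °C. IC50 was fitted from % inhibition normalised to DMSO and staurosporine control lysates.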

The target of assay [2] is Ba/F3 ERBB2 A775_G776insYVMA (Homo sapiens, UniProt P04626, DUP772-775, cells depend on it). Briefly: Cell viability assay, Ba/F3 ERBB2 A775_G776insYVMA. In kind it is cell-based, mouse. The conditions noted are these: Ba/F3 ERBB2 YVMA cells, cell viability, 72 hours, CellTiter Glo; Table B5; read-out: Ba/F3 ERBB2 YVMA, IC50. In a few lines:
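Viability after 72 h compound treatment (37 °C, 5% CO2) was quantified by CellTiter-Glo luminescence of intracellular ATP, with sigmoidal dose-response fitting. Cells were retrovirally engineered Ba/F3 lines whose growth depends on the mutant human ERBB2 in place of IL-3, plated at 3000 per well.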
A general note: In ATP-based viability assays light output follows the ATP content of the culture.

In assay [3] the target is T2, phosphorylated ERBB2 (pERBB2) (Homo sapiens, UniProt P04626).
T2 construct: endogenous in cells; host or cells: BT-474
T2 sequence (P04626 23-1255): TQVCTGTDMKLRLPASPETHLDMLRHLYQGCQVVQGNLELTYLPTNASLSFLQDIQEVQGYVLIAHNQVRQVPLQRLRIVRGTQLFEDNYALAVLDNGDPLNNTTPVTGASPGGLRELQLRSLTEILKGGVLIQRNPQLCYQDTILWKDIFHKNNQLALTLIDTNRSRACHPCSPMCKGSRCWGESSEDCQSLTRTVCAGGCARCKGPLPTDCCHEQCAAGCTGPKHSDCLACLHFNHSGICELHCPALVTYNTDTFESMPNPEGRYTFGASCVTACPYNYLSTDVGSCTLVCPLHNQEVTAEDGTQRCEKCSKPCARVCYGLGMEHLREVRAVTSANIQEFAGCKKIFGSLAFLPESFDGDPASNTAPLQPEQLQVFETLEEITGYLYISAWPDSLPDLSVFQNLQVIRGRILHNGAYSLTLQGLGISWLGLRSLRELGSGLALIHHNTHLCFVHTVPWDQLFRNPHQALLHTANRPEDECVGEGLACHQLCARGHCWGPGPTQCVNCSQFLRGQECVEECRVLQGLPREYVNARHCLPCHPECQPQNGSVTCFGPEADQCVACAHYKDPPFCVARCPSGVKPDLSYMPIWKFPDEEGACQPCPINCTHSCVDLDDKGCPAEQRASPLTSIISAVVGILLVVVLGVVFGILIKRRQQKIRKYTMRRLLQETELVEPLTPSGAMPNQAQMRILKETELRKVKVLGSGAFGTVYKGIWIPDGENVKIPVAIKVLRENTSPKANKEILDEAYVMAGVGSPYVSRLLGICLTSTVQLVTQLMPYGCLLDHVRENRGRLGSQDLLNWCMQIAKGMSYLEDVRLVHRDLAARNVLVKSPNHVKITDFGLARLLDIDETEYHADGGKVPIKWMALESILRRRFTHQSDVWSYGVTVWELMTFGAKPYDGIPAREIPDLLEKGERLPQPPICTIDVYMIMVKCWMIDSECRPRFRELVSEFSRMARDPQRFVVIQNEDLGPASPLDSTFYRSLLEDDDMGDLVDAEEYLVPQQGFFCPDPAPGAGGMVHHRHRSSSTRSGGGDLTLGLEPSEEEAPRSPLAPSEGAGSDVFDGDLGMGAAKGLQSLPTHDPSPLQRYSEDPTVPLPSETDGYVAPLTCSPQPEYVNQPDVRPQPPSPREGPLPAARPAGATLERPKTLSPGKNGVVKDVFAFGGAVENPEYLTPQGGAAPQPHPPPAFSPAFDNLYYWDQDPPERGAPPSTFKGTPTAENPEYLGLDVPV
In words: Detection of phosphorylated ERBB2 (pERBB2) by ELISA in BT-474 cells. It counts as cell-based. The following applies: four hours incubation. In a few lines: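 Phospho-ERBB2 in lysates was quantified by sandwich ELISA (A450, TMB) after 4 h compound exposure at 37 °C of BT-474 cells seeded at 2.0×10^4 per well. Compounds tested at 10 µM to 0.01 nM final in four-fold steps; activity normalized to DMSO (0.1%) high and cell-free low controls.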
A general note: In an ELISA, binding on a coated surface is turned into a signal by an enzyme label.

As usually defined, the IC50 is the concentration needed to halve the response being measured. High values mean weaker potency, low ones greater potency.

Where a name gives a salt, the structure may show the parent alone.

Ba/F3 ERBB2 A775_G776insYVMA, sequence (P04626 with tags, fused parts or gaps DUP772-775): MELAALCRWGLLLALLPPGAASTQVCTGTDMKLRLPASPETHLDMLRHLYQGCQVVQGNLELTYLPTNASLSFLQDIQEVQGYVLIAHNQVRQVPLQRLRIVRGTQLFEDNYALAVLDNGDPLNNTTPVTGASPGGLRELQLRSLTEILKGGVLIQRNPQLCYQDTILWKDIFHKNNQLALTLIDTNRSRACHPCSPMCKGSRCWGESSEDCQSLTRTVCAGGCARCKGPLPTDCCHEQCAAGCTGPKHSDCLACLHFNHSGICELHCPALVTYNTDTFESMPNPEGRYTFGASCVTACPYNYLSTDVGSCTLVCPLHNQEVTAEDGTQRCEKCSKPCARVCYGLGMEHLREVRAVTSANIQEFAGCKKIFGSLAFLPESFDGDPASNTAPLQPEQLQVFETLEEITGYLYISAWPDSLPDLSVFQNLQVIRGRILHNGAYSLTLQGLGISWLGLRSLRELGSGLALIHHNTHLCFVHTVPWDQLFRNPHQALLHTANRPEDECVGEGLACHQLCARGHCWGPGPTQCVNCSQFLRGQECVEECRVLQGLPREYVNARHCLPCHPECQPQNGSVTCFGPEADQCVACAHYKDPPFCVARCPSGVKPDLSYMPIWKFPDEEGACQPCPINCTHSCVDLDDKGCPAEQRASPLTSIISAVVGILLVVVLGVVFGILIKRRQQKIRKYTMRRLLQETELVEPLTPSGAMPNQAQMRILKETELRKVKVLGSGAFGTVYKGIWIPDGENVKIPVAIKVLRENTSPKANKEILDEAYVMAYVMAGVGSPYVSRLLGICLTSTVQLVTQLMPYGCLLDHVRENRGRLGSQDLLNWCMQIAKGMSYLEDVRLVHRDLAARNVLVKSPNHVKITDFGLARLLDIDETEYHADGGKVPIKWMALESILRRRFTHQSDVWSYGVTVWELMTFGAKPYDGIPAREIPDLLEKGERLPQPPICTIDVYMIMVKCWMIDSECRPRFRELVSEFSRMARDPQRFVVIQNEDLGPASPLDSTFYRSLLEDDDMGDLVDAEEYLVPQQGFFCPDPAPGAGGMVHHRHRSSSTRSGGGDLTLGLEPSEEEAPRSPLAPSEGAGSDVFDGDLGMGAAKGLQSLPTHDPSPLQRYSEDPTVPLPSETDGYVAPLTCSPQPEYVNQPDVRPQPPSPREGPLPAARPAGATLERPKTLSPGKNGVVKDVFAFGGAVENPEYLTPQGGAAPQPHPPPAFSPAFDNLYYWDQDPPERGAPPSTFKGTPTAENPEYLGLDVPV
T1 sequence (P00533 25-1210): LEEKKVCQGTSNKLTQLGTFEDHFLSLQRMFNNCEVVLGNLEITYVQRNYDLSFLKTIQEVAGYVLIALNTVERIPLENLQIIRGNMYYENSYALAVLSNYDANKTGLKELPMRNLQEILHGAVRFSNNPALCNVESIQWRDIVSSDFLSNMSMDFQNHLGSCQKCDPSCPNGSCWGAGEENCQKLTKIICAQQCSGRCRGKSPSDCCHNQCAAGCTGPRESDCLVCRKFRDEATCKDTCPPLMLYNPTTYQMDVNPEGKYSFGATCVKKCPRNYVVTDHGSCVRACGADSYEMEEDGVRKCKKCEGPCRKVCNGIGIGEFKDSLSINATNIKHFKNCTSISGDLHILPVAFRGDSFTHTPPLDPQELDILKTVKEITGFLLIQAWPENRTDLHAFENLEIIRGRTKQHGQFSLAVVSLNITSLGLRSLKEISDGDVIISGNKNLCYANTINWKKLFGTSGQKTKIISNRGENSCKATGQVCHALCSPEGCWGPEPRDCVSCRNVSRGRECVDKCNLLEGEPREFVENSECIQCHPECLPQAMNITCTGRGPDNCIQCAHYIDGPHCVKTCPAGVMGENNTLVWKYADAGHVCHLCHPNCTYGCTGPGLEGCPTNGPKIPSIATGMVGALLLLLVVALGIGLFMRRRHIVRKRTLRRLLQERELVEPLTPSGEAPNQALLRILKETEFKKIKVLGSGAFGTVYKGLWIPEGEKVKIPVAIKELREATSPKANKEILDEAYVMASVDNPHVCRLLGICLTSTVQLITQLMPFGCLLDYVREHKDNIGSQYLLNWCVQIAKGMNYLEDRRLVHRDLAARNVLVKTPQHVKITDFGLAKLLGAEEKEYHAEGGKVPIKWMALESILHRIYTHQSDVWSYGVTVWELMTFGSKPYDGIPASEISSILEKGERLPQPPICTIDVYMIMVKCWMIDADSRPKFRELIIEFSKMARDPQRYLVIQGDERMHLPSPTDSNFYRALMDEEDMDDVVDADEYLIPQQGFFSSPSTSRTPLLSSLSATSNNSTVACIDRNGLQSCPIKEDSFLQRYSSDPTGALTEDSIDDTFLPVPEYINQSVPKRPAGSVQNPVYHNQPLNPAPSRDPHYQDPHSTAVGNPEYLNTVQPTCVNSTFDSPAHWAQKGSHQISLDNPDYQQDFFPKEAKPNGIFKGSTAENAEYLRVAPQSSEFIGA

Take `Cc1cc(Nc2ncnc3ccc(N4CC/C(=C\CCN(C)C)C4=O)nc23)ccc1Oc1ccn2ncnc2c1` [Compound 48, (3E)-3-[3-(dimethylamino)propylidene]-1-{4-[(3-methyl-4-{[1,2,4]triazolo[1,5-a]pyridin-7-yloxy}phenyl)amino]pyrido[3,2-d]pyrimidin-6-yl}pyrrolidin-2-one]: the results for the IC50 in assay [1] and in assay [3] were 63.5 nM and 12.4 nM, respectively. Moreover, the GI50 in assay [2] came out at 0.837 nM.
For `Cc1ccc(Oc2ccc(Nc3ncnc4ccc(N5CC/C(=C\CN(C)C)C5=O)nc34)cc2C)cn1` [Compound 49, (E)-3-(2-(dimethylamino)ethylidene)-1-(4-((3-methyl-4-((6-methylpyridin-3-yl)oxy)phenyl)amino)pyrido[3,2-d]pyrimidin-6-yl)pyrrolidin-2-one], in that order: 173 nM, 13.9 nM and 0.999 nM.
Consider `C=C1CCN(c2ccc3ncnc(Nc4ccc(Oc5ccc6cncnc6c5)c(C)c4)c3c2)C1=O` [Compound 50, 1-(4-{[3-methyl-4-(quinazolin-7-yloxy)phenyl]amino}quinazolin-6-yl)-3-methylidenepyrrolidin-2-one], for which the IC50 in assay [1] worked out at 2150 nM; in assay [3], 80.1 nM. Moreover, the GI50 in assay [2] was determined as 46.4 nM.
Consider `C=C1CCN(c2ccc3ncnc(Nc4ccc(Cc5ccc6c(c5)ncn6C)c(C)c4)c3c2)C1=O` [Compound 52, 1-[4-({3-methyl-4-[(1-methyl-1,3-benzodiazol-5-yl)methyl]phenyl}amino)quinazolin-6-yl]-3-methylidenepyrrolidin-2-one], for which the concentration for half-maximal inhibition (IC50) in assay [1] is greater than 10000 nM; in assay [3], 81.2 nM. Moreover, the GI50 in assay [2] was determined as 21.9 nM.
With `Cc1cc(Nc2ncnc3ccc(N4CC/C(=C\CCN(C)C)C4=O)nc23)ccc1Oc1ccc2c(c1)ncn2C` [Compound 53, (3E)-3-[3-(dimethylamino)propylidene]-1-[4-({3-methyl-4-[(1-methyl-1,3-benzodiazol-5-yl)oxy]phenyl}amino)pyrido[3,2-d]pyrimidin-6-yl]pyrrolidin-2-one], the IC50 in assay [1] came out at 76 nM; in assay [3], 35.6 nM. Further, the GI50 in assay [2] is 2.05 nM.
In the same order, the values of `Cc1cc(Nc2ncnc3ccc(N4CC/C(=C\CN(C)C)C4=O)nc23)ccc1Cc1ccc2c(c1)ncn2C` [Compound 54, (3E)-3-[2-(dimethylamino)ethylidene]-1-[4-({3-methyl-4-[(1-methyl-1,3-benzodiazol-5-yl)methyl]phenyl}amino)pyrido[3,2-d]pyrimidin-6-yl]pyrrolidin-2-one] are 1540 nM, 42 nM and 5.37 nM.
On to `Cc1cc(Nc2ncnc3ccc(N4CC/C(=C\CN(C)C)C4=O)nc23)ccc1Oc1ccn(C(F)F)c(=O)c1` [Compound 55, 1-(difluoromethyl)-4-[4-({6-[(3E)-3-[2-(dimethylamino)ethylidene]-2-oxopyrrolidin-1-yl]pyrido[3,2-d]pyrimidin-4-yl}amino)-2-methylphenoxy]pyridin-2-one], for which the results for the IC50 in assay [1] and in assay [3] were 250 nM and 23.1 nM, respectively. For the same compound, the GI50 in assay [2] amounted to 23 nM.
With `C=C1CCN(c2cc3c(Nc4ccc(Oc5ccn6ncnc6c5)c(C)c4)ncnc3cc2OCCN(C)C)C1=O` [Compound 56, 1-{7-[2-(dimethylamino)ethoxy]-4-[(3-methyl-4-{[1,2,4]triazolo[1,5-a]pyridin-7-yloxy}phenyl)amino]quinazolin-6-yl}-3-methylidenepyrrolidin-2-one], the IC50 in assay [1] was greater than 10000 nM; in assay [3], 6520 nM. Also, the GI50 in assay [2] is greater than 500 nM.
As for `C=C1C(=O)N(c2ccc3ncnc(Nc4ccc(Oc5ccc6c(c5)ncn6C)c(C)c4)c3n2)C[C@H]1C` [Compound 59, (4S)-4-methyl-1-[4-({3-methyl-4-[(1-methyl-1,3-benzodiazol-5-yl)oxy]phenyl}amino)pyrido[3,2-d]pyrimidin-6-yl]-3-methylidenepyrrolidin-2-one], the figures for the IC50 in assay [1] and in assay [3] were 710 nM and 60.7 nM, respectively. In addition, the GI50 in assay [2] is 13.4 nM.
For the compound `Cc1cc(Nc2ncnc3cnc(N4CC/C(=C\CCN(C)C)C4=O)cc23)ccc1Oc1ccn2ncnc2c1` [Compound 60, (E)-1-(4-(4-([1,2,4]triazolo[1,5-a]pyridin-7-yloxy)-3-methylphenylamino)pyrido[3,4-d]pyrimidin-6-yl)-3-(3-(dimethylamino)propylidene)pyrrolidin-2-one formate], the values for the IC50 in assay [1] and in assay [3] were 3040 nM and 12 nM, respectively. The GI50 in assay [2] worked out at 22.5 nM.
Consider `Cc1cc(Nc2ncnc3ccc(N4CC/C(=C\CN(C)C)C4=O)nc23)ccc1Oc1ccc2nccnc2c1` [Compound 61, (E)-3-(2-(dimethylamino)ethylidene)-1-(4-(3-methyl-4-(quinoxalin-6-yloxy)phenylamino)pyrido[3,2-d]pyrimidin-6-yl)pyrrolidin-2-one], for which the half-inhibitory concentration (IC50) in assay [1] is 1010 nM; in assay [3], 132 nM. Besides, the GI50 in assay [2] was 7.15 nM.
Turning to `Cc1cc(Nc2ncnc3ccc(N4CC/C(=C\CN(C)C)C4=O)nc23)ccc1Oc1cccnc1` [Compound 62, (3E)-3-[2-(dimethylamino)ethylidene]-1-(4-{[3-methyl-4-(pyridin-3-yloxy)phenyl]amino}pyrido[3,2-d]pyrimidin-6-yl)pyrrolidin-2-one], the 50% inhibitory concentration (IC50) in assay [1] was 212 nM; in assay [3], 23.9 nM. Further, the GI50 in assay [2] turned out to be 4.36 nM.
For `CCn1cnc2cc(Oc3ccc(Nc4ncnc5ccc(N6CC/C(=C\CN(C)C)C6=O)nc45)cc3C)ccc21` [Compound 65, (3E)-3-[2-(dimethylamino)ethylidene]-1-[4-({4-[(1-ethyl-1,3-benzodiazol-5-yl)oxy]-3-methylphenyl}amino)pyrido[3,2-d]pyrimidin-6-yl]pyrrolidin-2-one], in that order: greater than 10000 nM, 128 nM and 36.4 nM.
As to `Cc1cc(Nc2ncnc3ccc(N4CC/C(=C\CN(C)C)C4=O)nc23)ccc1Oc1ccc2ocnc2c1` [Compound 66, (E)-1-(4-((4-(benzo[d]oxazol-5-yloxy)-3-methylphenyl)amino)pyrido[3,2-d]pyrimidin-6-yl)-3-(2-(dimethylamino)ethylidene)pyrrolidin-2-one], the IC50 in assay [1] came out at 93.6 nM; in assay [3] it was 34.2 nM. The GI50 in assay [2] turned out to be 1.95 nM.
For `Cc1cc(Nc2ncnc3ccc(N4CC/C(=C\CN(C)C)C4=O)nc23)ccc1Oc1ccc2scnc2c1` [Compound 67, (E)-1-(4-((4-(benzo[d]thiazol-5-yloxy)-3-methylphenyl)amino)pyrido[3,2-d]pyrimidin-6-yl)-3-(2-(dimethylamino)ethylidene)pyrrolidin-2-one], in that order: 53.2 nM, 44.2 nM and 1.82 nM.
Take `Cc1cc(Nc2ncnc3ccc(N4CC/C(=C\CN(C)C)C4=O)nc23)ccc1Oc1ccc2c(c1)nnn2C` [Compound 68, (3E)-3-[2-(dimethylamino)ethylidene]-1-[4-({3-methyl-4-[(1-methyl-1,2,3-benzotriazol-5-yl)oxy]phenyl}amino)pyrido[3,2-d]pyrimidin-6-yl]pyrrolidin-2-one]: the figures for the 50% inhibitory concentration (IC50) in assay [1] and in assay [3] were 973 nM and 30.5 nM, respectively. In assay [2], the GI50 was 3.81 nM.
For `Cc1c(Oc2ccc3c(c2)ncn3C)ccc(Nc2ncnc3ccc(N4CC/C(=C\CN(C)C)C4=O)nc23)c1F` [Compound 69, (3E)-3-[2-(dimethylamino)ethylidene]-1-[4-({2-fluoro-3-methyl-4-[(1-methyl-1,3-benzodiazol-5-yl)oxy]phenyl}amino)pyrido[3,2-d]pyrimidin-6-yl]pyrrolidin-2-one], the IC50 is greater than 10000 nM in assay [1] and 56.4 nM in assay [3]. For the same compound, in assay [2], the GI50 is 3.57 nM.
As for `Cc1cc(Nc2ncnc3ccc(N4CC/C(=C\CN(C)C)C4=O)nc23)c(F)cc1Oc1ccc2c(c1)ncn2C` [Compound 70, (3E)-3-[2-(dimethylamino)ethylidene]-1-[4-({2-fluoro-5-methyl-4-[(1-methyl-1,3-benzodiazol-5-yl)oxy]phenyl}amino)pyrido[3,2-d]pyrimidin-6-yl]pyrrolidin-2-one], the figures for the 50% inhibitory concentration (IC50) in assay [1] and in assay [3] were 1990 nM and 34.4 nM, respectively. In addition, the GI50 in assay [2] amounted to 4.29 nM.
On to `Cc1cc(Nc2ncnc3ccc(N4CC/C(=C\CN(C)C)C4=O)nc23)ccc1Oc1ccn2ccnc2c1` [Compound 71, (3E)-3-[2-(dimethylamino)ethylidene]-1-{4-[(4-{imidazo[1,2-a]pyridin-7-yloxy}-3-methylphenyl)amino]pyrido[3,2-d]pyrimidin-6-yl}pyrrolidin-2-one], for which the concentration for half-maximal inhibition (IC50) was determined as 273 nM in assay [1] and 25.7 nM in assay [3]. Besides, in assay [2], the GI50 amounted to 2.56 nM.
As to `CCc1ccc(Oc2ccc(Nc3ncnc4ccc(N5CC/C(=C\CN(C)C)C5=O)nc34)cc2C)cn1` [Compound 72, (E)-3-(2-(dimethylamino)ethylidene)-1-(4-((4-((6-ethylpyridin-3-yl)oxy)-3-methylphenyl)amino)pyrido[3,2-d]pyrimidin-6-yl)pyrrolidin-2-one], the IC50 in assay [1] worked out at 1880 nM; in assay [3], 44.9 nM. Further, in assay [2], the GI50 was 5.37 nM.
